In PubChem BioAssay (NCI):
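Cells were grown in 96-well plates and exposed to each compound for 48 hours at five concentrations; endpoints were interpolated linearly between bracketing concentrations, or set to the highest concentration if not reached. TGI: concentration producing complete growth inhibition.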

Legend:
Experiment in all cases: NCI tumour cell line growth inhibition, 48 h
[1] = test system: 786-0 renal
[2] = test system: A498 renal
[3] = test system: A549 NSCLC
[4] = test system: ACHN renal
[5] = test system: BT-549 breast
[6] = test system: CAKI-1 renal
[7] = test system: CCRF-CEM leukemia
[8] = test system: COLO 205 colon
[9] = test system: DU-145 prostate
[10] = test system: EKVX NSCLC
[11] = test system: HCC-2998 colon
[12] = test system: HCT-116 colon
[13] = test system: HCT-15 colon
[14] = test system: HL-60(TB) leukemia
[15] = test system: HOP-62 NSCLC
[16] = test system: HOP-92 NSCLC
[17] = test system: HS 578T breast
[18] = test system: HT29 colon
[19] = test system: IGROV1 ovarian
[20] = test system: K-562 leukemia
[21] = test system: KM12 colon
[22] = test system: LOX IMVI melanoma
[23] = test system: M14 melanoma
[24] = test system: MALME-3M melanoma
[25] = test system: MCF7 breast
[26] = test system: MDA-MB-231 breast
[27] = test system: MDA-MB-435
[28] = test system: MDA-N
[29] = test system: NCI-H226 lung
[30] = test system: NCI-H23 lung
[31] = test system: NCI-H460 lung
[32] = test system: NCI-H522 lung
[33] = test system: NCI/ADR-RES ovarian
[34] = test system: OVCAR-3 ovarian
[35] = test system: OVCAR-4 ovarian
[36] = test system: OVCAR-5 ovarian
[37] = test system: OVCAR-8 ovarian
[38] = test system: PC-3 prostate
[39] = test system: RPMI-8226 leukemia
[40] = test system: RXF 393 renal
[41] = test system: SF-268 CNS
[42] = test system: SF-295 CNS
[43] = test system: SF-539 CNS
[44] = test system: SK-MEL-2 melanoma
[45] = test system: SK-MEL-28 melanoma
[46] = test system: SK-MEL-5 melanoma
[47] = test system: SK-OV-3 ovarian
[48] = test system: SN12C renal
[49] = test system: SNB-19 CNS
[50] = test system: SNB-75 CNS
[51] = test system: SR leukemia
[52] = test system: SW-620 colon
[53] = test system: T-47D breast
[54] = test system: TK-10 renal
[55] = test system: U251 CNS
[56] = test system: UACC-257 melanoma
[57] = test system: UACC-62 melanoma
[58] = test system: UO-31 renal
[59] = test system: MOLT-4 leukemia

In the case of `OCCn1cnc2c(SCc3ccccc3)ncnc21`, the TGI [1] is reported as > 100 µM, the TGI [2] is reported as > 100 µM and the TGI [3] is reported as > 100 µM. The TGI [4] was > 100 µM, the TGI [5] was > 100 µM and the TGI [6] was > 100 µM. For the same compound, the TGI [7] was > 100 µM, the TGI [8] was > 100 µM and the TGI [9] was > 100 µM. The TGI [10] was > 100 µM, the TGI [11] was > 100 µM and the TGI [12] was > 100 µM. The TGI [13] was > 100 µM, the TGI [14] was > 100 µM and the TGI [15] was > 100 µM. For the same compound, the TGI [16] was > 100 µM, the TGI [17] was > 100 µM and the TGI [18] was > 100 µM. For the same compound, the TGI [19] was > 100 µM, the TGI [20] was > 100 µM and the TGI [21] was > 100 µM. The TGI [22] was > 100 µM, the TGI [23] was > 100 µM and the TGI [24] was > 100 µM. The TGI [25] was > 100 µM, the TGI [26] was > 100 µM and the TGI [27] was > 100 µM. For the same compound, the TGI [28] was > 100 µM, the TGI [29] was > 100 µM and the TGI [30] was > 100 µM. For the same compound, the TGI [31] was > 100 µM, the TGI [32] was > 100 µM and the TGI [33] was > 100 µM. The TGI [34] was > 100 µM, the TGI [35] was > 100 µM and the TGI [36] was > 100 µM. The TGI [37] was > 100 µM, the TGI [38] was > 100 µM and the TGI [39] was > 100 µM. For the same compound, the TGI [40] was > 100 µM, the TGI [41] was > 100 µM and the TGI [42] was > 100 µM. For the same compound, the TGI [43] was > 100 µM, the TGI [44] was > 100 µM and the TGI [45] was > 100 µM. For the same compound, the TGI [46] was > 100 µM, the TGI [47] was > 100 µM and the TGI [48] was > 100 µM. For the same compound, the TGI [49] was > 100 µM, the TGI [50] was > 100 µM and the TGI [51] was > 100 µM. The TGI [52] was > 100 µM, the TGI [53] was > 100 µM and the TGI [54] was > 100 µM. For the same compound, the TGI [55] was > 100 µM, the TGI [56] was > 100 µM and the TGI [57] was > 100 µM. The TGI [58] was > 100 µM.
In the case of `CN(C)c1ccc(C=C2C(=O)NC(=S)NC2=O)c2ccccc12`, the TGI [1] is reported as > 100 µM, the TGI [2] is reported as > 100 µM and the TGI [3] is reported as > 100 µM. For the same compound, the TGI [4] was > 100 µM, the TGI [5] was > 100 µM and the TGI [6] was > 100 µM. For the same compound, the TGI [7] was > 100 µM, the TGI [8] was > 100 µM and the TGI [9] was > 100 µM. The TGI [10] was > 100 µM, the TGI [11] was > 100 µM and the TGI [12] was > 100 µM. The TGI [13] was > 100 µM, the TGI [14] was > 100 µM and the TGI [15] was > 100 µM. The TGI [16] was 91.4 µM, the TGI [17] was 71.8 µM and the TGI [18] was > 100 µM. For the same compound, the TGI [19] was > 100 µM, the TGI [20] was > 100 µM and the TGI [21] was > 100 µM. The TGI [22] was 77 µM, the TGI [23] was > 100 µM and the TGI [24] was > 100 µM. For the same compound, the TGI [25] was > 100 µM, the TGI [26] was > 100 µM and the TGI [27] was > 100 µM. For the same compound, the TGI [28] was > 100 µM, the TGI [59] was > 100 µM and the TGI [29] was > 100 µM. For the same compound, the TGI [30] was > 100 µM, the TGI [31] was > 100 µM and the TGI [32] was 37.5 µM. For the same compound, the TGI [33] was > 100 µM, the TGI [34] was > 100 µM and the TGI [35] was > 100 µM. For the same compound, the TGI [36] was > 100 µM, the TGI [37] was 77 µM and the TGI [38] was > 100 µM. The TGI [39] was > 100 µM, the TGI [40] was 76.4 µM and the TGI [41] was 76.9 µM. For the same compound, the TGI [42] was > 100 µM, the TGI [43] was > 100 µM and the TGI [44] was > 100 µM. For the same compound, the TGI [45] was > 100 µM, the TGI [46] was > 100 µM and the TGI [47] was > 100 µM. The TGI [48] was > 100 µM, the TGI [49] was > 100 µM and the TGI [50] was > 100 µM. The TGI [51] was > 100 µM, the TGI [52] was > 100 µM and the TGI [53] was > 100 µM. For the same compound, the TGI [54] was > 100 µM, the TGI [55] was > 100 µM and the TGI [56] was > 100 µM. For the same compound, the TGI [57] was > 100 µM and the TGI [58] was > 100 µM.
